Patent US12459951B2, “Compounds that interact with RAS superfamily proteins for treatment of cancers, inflammatory diseases, rasopathies, and fibrotic disease” (SHY Therapeutics, LLC, priority 2022, dated 2025)

Experiments:
Erk1/2 phosphorylation = assay: Erk1/2 Phosphorylation Assay (western blot), Panc-1; assay type: cell-based, human; conditions: at 10 μM, * = activation
Procedure: Protocol for Western Erk1/2 Cell-Based Phosphorylation Assay
This assay is referred to as the “Erk1/2 Phosphorylation Assay” throughout this application.
Cell lines: Human tumor-derived pancreatic cancer cell line Panc-1 (expressing KRas G12D mutant) was purchased from American Type Culture Collection and grown in complete DMEM-High Glucose medium, supplemented with penicillin (100 U/mL), streptomycin (100 μg/mL), and 10% heat-inactivated FBS at 37° C. in a humidified incubator with 5% CO2.
Method 1: Cells were plated at 350000 cells/well density in a 12-well plate, allowed 3 hours to adhere to the plate, then starved in the appropriate medium in the presence of 0.5% FBS overnight. The small molecules to be tested were added to the cells in the final concentration of 10 μM in the presence of 0.3% DMSO for 6 hours incubation at 37° C. For IC50 value determination, serial dilutions of compounds were added to cells under the same conditions. Next, cells were stimulated with 1.5 ng/ml EGF for 15 minutes then cells were lysed with lysis buffer containing 1% Triton X-100, EDTA, and Halt™ Protease & Phosphatase Inhibitor Cocktail (Thermo Scientific). Protein concentration was assessed by BCA protein assay (Thermo Scientific). Phosphorylation level of Erk1/2 was determined by western blot.
Method 2: Cells were plated at 350000 cells/well density in a 12-well plate in 10% FBS. The next day small molecules to be tested were added to the cells in the final concentration of 10 μM in the presence of 0.3% DMSO for 6 hours incubation at 37° C. For IC50 value determination, serial dilutions of compounds were added to cells under the same conditions. Next, cells were lysed with lysis buffer containing 1% Triton X-100, EDTA, and Halt™ Protease & Phosphatase Inhibitor Cocktail (Thermo Scientific). Protein concentration was assessed by BCA protein assay (Thermo Scientific). Phosphorylation level of Erk1/2 was determined by western blot.
Western blot protocol: Equal amounts of protein (15-50 μg) were separated by SDS-PAGE and transferred to nitrocellulose membranes (Invitrogen by Thermo Fisher Scientific). The membrane was stained with Ponceau S Stain (Boston BioProducts) to verify uniform protein loading. Membranes were blocked with 10% milk and phosphorylation levels of Erk1/2 were assessed by incubating overnight at 4° C. with anti-phospho-p44/42 (Thr202/Tyr204) antibody (Cell Signaling) followed by HRP-conjugated secondary antibody (Jackson Immunoresearch, West Grove, PA). Bands were incubated in Amersham ECL Prime Western Blotting Detection Reagent (GE Healthcare) and visualized using the ChemiDoc MP imaging system (Bio-Rad).

IL6 = assay: IL-6 Quantification Assay (ELISA), LPS-stimulated RAW 264.7; assay type: cell-based; design: inhibition: dose or concentration left out as unconfirmed; conditions: Mus musculus, RAW264.7; read-out: IL-6: % inh.

Structure (SMILES) | % inh of Erk1/2 phosphorylation in Panc-1 (Erk1/2 phosphorylation) | inhibition (IL6) [%]
Cc1c(-c2ccn(C3CC3)n2)cn2nc(-c3nccn3C)nc(Nc3cc(OC(F)(F)F)ccn3)c12 [Compound 138, 6-(1-Cyclopropyl-1H-pyrazol-3-yl)-5-methyl-2-(1-methyl-1H-imidazol-2-yl)-N-(4-(trifluoromethoxy)pyridin-2-yl)pyrrolo[2,1-f][1,2,4]triazin-4-amine] | D* (85-100% activation) | 50 to 74
Cc1c(-c2ccn(C)n2)cn2nc(-c3nccn3C)nc(Nc3cc(OC(C)C)ccn3)c12 [Compound 136, N-(4-Isopropoxypyridin-2-yl)-5-methyl-2-(1-methyl-1H-imidazol-2-yl)-6-(1-methyl-1H-pyrazol-3-yl)pyrrolo[2,1-f][1,2,4]triazin-4-amine] | D* (85-100% activation) | 25 to 49
COc1cnc(Nc2nc(-c3nccn3C)nn3cc(-c4ccn(C)n4)c(C)c23)cn1 [Compound 110, N-(5-Methoxypyrazin-2-yl)-5-methyl-2-(1-methyl-1H-imidazol-2-yl)-6-(1-methyl-1H-pyrazol-3-yl)pyrrolo[2,1-f][1,2,4]triazin-4-amine] | B* (26-49% activation) | 1 to 24
Cc1c(-c2ccn(C(C)C)n2)cn2nc(-c3nccn3C)nc(Nc3cc(OCCO)ncn3)c12 [Compound 97, 2-((6-((6-(1-Isopropyl-1H-pyrazol-3-yl)-5-methyl-2-(1-methyl-1H-imidazol-2-yl)pyrrolo[2,1-f][1,2,4]triazin-4-yl)amino)pyrimidin-4-yl)oxy) ethan-1-ol] | D* (85-100% activation) | 1 to 24
COc1ccnc(Nc2nc(-c3nccn3C)nn3cc(-c4cnn(C(C)C)c4)c(C)c23)c1 [Compound 165, 6-(1-Isopropyl-1H-pyrazol-4-yl)-N-(4-methoxypyridin-2-yl)-5-methyl-2-(1-methyl-1H-imidazol-2-yl)pyrrolo[2,1-f][1,2,4]triazin-4-amine] | C* (46-84% activation) | 50 to 74
Cc1c(-c2ccn(C3CC3)n2)cn2nc(-c3nccn3C)nc(Nc3cc(OCCO)ccn3)c12 [Compound 146, 2-((2-((6-(1-Cyclopropyl-1H-pyrazol-3-yl)-5-methyl-2-(1-methyl-1H-imidazol-2-yl)pyrrolo[2,1-f][1,2,4]triazin-4-yl)amino)pyridin-4-yl)oxy)ethan-1-ol] | D* (85-100% activation) | 0
Cc1c(-c2ccn(C3CC3)n2)cn2nc(-c3nccn3C)nc(Nc3cc(OCC(F)(F)F)ccn3)c12 [Compound 140, 6-(1-Cyclopropyl-1H-pyrazol-3-yl)-5-methyl-2-(1-methyl-1H-imidazol-2-yl)-N-(4-(2,2,2-trifluoroethoxy)pyridin-2-yl)pyrrolo[2,1-f][1,2,4]triazin-4-amine] | D* (85-100% activation) | 50 to 74
Cc1c(-c2ccn(C)n2)cn2nc(-c3nccn3C)nc(Nc3n[nH]c(C4CC4)n3)c12 [Compound 113, N-(5-Cyclopropyl-1H-1,2,4-triazol-3-yl)-5-methyl-2-(1-methyl-1H-imidazol-2-yl)-6-(1-methyl-1H-pyrazol-3-yl)pyrrolo[2,1-f][1,2,4]triazin-4-amine] | D* (85-100% activation) | 75 to 100
COc1cc(Nc2nc(-c3nccn3C)nn3cc(-c4ccn(C5CC5)n4)c(C)c23)ncn1 [Compound 135, 6-(1-Cyclopropyl-1H-pyrazol-3-yl)-N-(6-methoxypyrimidin-4-yl)-5-methyl-2-(1-methyl-1H-imidazol-2-yl)pyrrolo[2,1-f][1,2,4]triazin-4-amine] | D* (85-100% activation) | 25 to 49
Cc1c(-c2ccn(C3CC3)n2)cn2nc(-c3nccn3C)nc(Nc3cc(OCCN(C)C)ccn3)c12 [Compound 147, 6-(1-Cyclopropyl-1H-pyrazol-3-yl)-N-(4-(2-(dimethylamino)ethoxy)pyridin-2-yl)-5-methyl-2-(1-methyl-1H-imidazol-2-yl)pyrrolo[2,1-f][1,2,4]triazin-4-amine] | A* (1-25% activation) | 0
COc1cnc(Nc2nc(-c3nccn3C)nn3cc(-c4ccn(C)n4)c(C)c23)nc1.Cl [Compound 117, N-(5-Methoxypyrimidin-2-yl)-5-methyl-2-(1-methyl-1H-imidazol-2-yl)-6-(1-methyl-1H-pyrazol-3-yl)pyrrolo[2,1-f][1,2,4]triazin-4-amine hydrochloride salt] | B (26-49% inhibition) | 1 to 24
Cc1c(-c2ccn(C)n2)cn2nc(-c3nccn3C)nc(Nc3ccn(C4CC4)n3)c12 [Compound 111, N-(1-Cyclopropyl-1H-pyrazol-3-yl)-5-methyl-2-(1-methyl-1H-imidazol-2-yl)-6-(1-methyl-1H-pyrazol-3-yl)pyrrolo[2,1-f][1,2,4]triazin-4-amine] | A* (1-25% activation) | 75 to 100
Cc1c(-c2ccn(C3CC3)n2)cn2nc(-c3nccn3C)nc(Nc3cc(OC(F)F)ccn3)c12 [Compound 139, 6-(1-Cyclopropyl-1H-pyrazol-3-yl)-N-(4-(difluoromethoxy)pyridin-2-yl)-5-methyl-2-(1-methyl-1H-imidazol-2-yl)pyrrolo[2,1-f][1,2,4]triazin-4-amine] | D* (85-100% activation) | 50 to 74
Cc1c(-c2ccn(C)n2)cn2nc(-c3nccn3C)nc(Nc3cnccn3)c12 [Compound 120, 5-Methyl-2-(1-methyl-1H-imidazol-2-yl)-6-(1-methyl-1H-pyrazol-3-yl)-N-(pyrazin-2-yl)pyrrolo[2,1-f][1,2,4]triazin-4-amine] | C* (46-84% activation) | 25 to 49
Cc1c(-c2ccn(C)n2)cn2nc(-c3nccn3C)nc(Nc3nccc(OCCN(C)C)n3)c12 [Compound 105, N-(4-(2-(Dimethylamino)ethoxy)pyrimidin-2-yl)-5-methyl-2-(1-methyl-1H-imidazol-2-yl)-6-(1-methyl-1H-pyrazol-3-yl)pyrrolo[2,1-f][1,2,4]triazin-4-amine] | A (1-25% inhibition) | 75 to 100
Cc1c(-c2ccn(C(C)C)n2)cn2nc(-c3nccn3C)nc(Nc3nccc(OCCN(C)C)n3)c12 [Compound 96, N-(4-(2-(Dimethylamino)ethoxy)pyrimidin-2-yl)-6-(1-isopropyl-1H-pyrazol-3-yl)-5-methyl-2-(1-methyl-1H-imidazol-2-yl)pyrrolo[2,1-f][1,2,4]triazin-4-amine] | 0 (0% inhibition) | 50 to 74
COc1cncnc1Nc1nc(-c2nccn2C)nn2cc(-c3ccn(C)n3)c(C)c12 [Compound 107, N-(5-Methoxypyrimidin-4-yl)-5-methyl-2-(1-methyl-1H-imidazol-2-yl)-6-(1-methyl-1H-pyrazol-3-yl)pyrrolo[2,1-f][1,2,4]triazin-4-amine] | D* (85-100% activation) | 25 to 49
Cc1c(-c2ccn(C(C)C)n2)cn2nc(-c3nccn3C)nc(Nc3nccn3C)c12 [Compound 93, 6-(1-Isopropyl-1H-pyrazol-3-yl)-5-methyl-N,2-bis(1-methyl-1H-imidazol-2-yl)pyrrolo[2,1-f][1,2,4]triazin-4-amine] | D (85-100% inhibition) | 75 to 100
COc1cc(-c2cn3nc(-c4nccn4C)nc(N[C@@H]4CC[C@H](OC)C4)c3c2C)ccn1 (racemic) [Compound 164, rac N-((1R,3S)-3-Methoxycyclopentyl)-6-(2-methoxypyridin-4-yl)-5-methyl-2-(1-methyl-1H-imidazol-2-yl)pyrrolo[2,1-f][1,2,4]triazin-4-amine] | A* (1-25% activation) | 75 to 100
COCCO[C@H]1C[C@H](Nc2nc(-c3nccn3C)nn3cc(-c4cccnc4)c(C)c23)C1 [Compound 152, N-((1r,3r)-3-(2-methoxyethoxy)cyclo-butyl)-5-methyl-2-(1-methyl-1H-imidazol-2-yl)-6-(pyridin-3-yl)pyrrolo[2,1-f][1,2,4]triazin-4-amine] | B* (26-49% activation) | 1 to 24
